Results published in patent publication US12527819B2, “Method of preventing or treating viral infections” (Vector Vitale IP LLC, priority 2020, dated 2026).
Converted amounts (≈) assume the structure as drawn. Like-named read-outs stand apart in the source and are kept apart here.

Assays:
MDCK cells = system: MDCK cells; design: unit not given beside the values
in vitro = conditions: dog
MDBK cells = assay: Mitotic regime of MDBK cells (cytological analysis); format: cell-based, bovine; conditions: dilution 1:1000; for Abnormal mitoses MDBK / Mitotic activity MDBK: relative to tissue control
Procedure: Cytological analysis was performed after fixing the cells grown on cover-glasses in Shabadash's fluid (9 parts of copper nitrate in ethyl alcohol+1 part of formalin) for 30 minutes. The samples for the cytological analysis were stained using hematoxylin and eosin stain according to the generally accepted procedure.
The mitotic index was calculated by analyzing 3000-10000 observed cells and was expressed in ppm (‰), which was the number of mitoses per 1000 cells. At the same time, the presence of pathological forms of mitosis was determined. A classification developed by V. N. Blyumkin was used for the analysis of pathological mitoses.
The examination of cytological preparations was carried out with lenses ×40 and ×100, eyepiece ×10 in a Standard 20, Zeiss microscope.
The experiment was conducted on the culture of MDBK cells that were treated with various options of the drugs. After 24 hours of contact the cells were fixed and cytological preparations were made using a standard technique.
The culture of MDBK cells was selected for the study. The cells were treated with various drug options at concentrations nontoxic for cells. After 24 hours of contact, the cells were fixed and cytological preparations were prepared according to a conventional technique.

herpes simplex virus = assay: Light water at various doses in mice infected intracerebrally with herpes virus; format: in vivo; conditions: 14 day; for Number of survived mice: 8 mice
Procedure: Thus 50, 100 and 200 μl per mouse were administered to the infected animals.
Groups consisting of 8 mice each were included in the experiment. […] The first administration of drugs was 24 hours later. After infection, there were 4 injections in total given every other day. Uninfected mice who received intracerebral injections of 30 μl of normal saline solution and the mice infected with HSV served as a control.

[1] = system: influenza virus A/FM/1/47 (H1N1); format: in vivo, BALB/c mice; conditions: reference drug, 1000 μg/kg
herpes virus = assay: Herpes virus meningoencephalitis model in mice, treatment regimen; conditions: dose 100 μg
Procedure: The anti-herpes activity of zinc preparations was studied in the model of herpes virus meningoencephalitis in BALB/c mice (18-20 g in weight) with their intracerebral administration at a dose of 0.03 ml. In all the experimental groups, the drug was administered intraperitoneally at a dose of 0.1 ml. […] 4B—Zn-64 citrate in deuterium-depleted water—3 mg/ml • 2. 4B-2—Zn citrate in deuterium-depleted water—3 mg/ml • 3. 8B—Zn-64 glutamate in deuterium-depleted water—3 mg/ml • 4. 8B-2—Zn glutamate in deuterium-depleted water—3 mg/ml • 5. 9B—Zn-64 glycine-methionine in deuterium-depleted water—1 mg/ml • 6. 9B-2—Zn glycine-methionine in deuterium-depleted water—1 mg/ml
The drug activity was evaluated by comparing the lethality in the experimental and control groups. The following factors were taken into account: • percentage of animals that died • multiplicity of protection (MP)—multiplicity of decrease in the number of dead mice in the experimental group compared to the control group • efficacy index (EI) of the drugs was determined using the following formula:

Procedure for Raji cells: A colorimetric assay using MTT 3-(4,5-dimethylthiazol-2-yl)-2,5-diphenyltetrazolium bromide (Sigma, USA) is based on the features of functioning of the dehydrogenase system of mitochondria of living cells which, under normal conditions, reprocess the artificial substrate MTT into a formazan that can be accounted spectrophotometrically.
The MTT substrate (Sigma, USA) was dissolved in sterile phosphate buffered saline (pH 7.2) at room temperature to a concentration of 5 mg/ml. The filtered MTT solution in a volume of 20 μl was added to the wells of a 96-well plate and incubated with the cells for 2 to 4 hours at 37° C. After incubation, the medium was removed, and 150 μl of 96° ethanol was added to the cells to dissolve the formazan crystals. The optical density of the solutions was determined spectrophotometrically using a Multican FC reader (“Thermo Scientific” (USA)) at a wavelength of 540 nm.
Cytotoxicity of the preparations under study was assessed using the MTT (3-(4,5-dimethylthiazol-2-yl)-2-5-diphenyltetrozolium bromide) assay, one of the commonly used colorimetric assay (Sigma USA). This assay determined cell viability through determination of mitochondrial function of cells by measuring activity of mitochondrial enzymes such as succinate dehydrogenase. In this assay, MTT is reduced to a purple formazan by NADH, which can be quantified spectrophotometrically. […] The purple color was measured at an excitation wavelength of 540 nm using a Thermo Scientific (USA) reader.

Compound: N[C@@H](CC(=O)O)C(=O)O [9a, aspartic acid]
- CC50 as dilution (MDCK cells): 1/80
- CC50 at 5 days (in vitro): 42 µg/mL (≈ 316 µM)

Compound: Cc1ccc(S(=O)(=O)Nc2ccccc2NC(=O)c2ccccc2)cc1 [10-3, n-n-toluenesulfonyl-n-benzoyl-o-phenylenediamine]
- Abnormal mitoses in % (MDBK cells; MDBK, 24 h): 25.0%
- Mitotic activity in % (MDBK cells; MDBK, 24 h): 16.0%
- Abnormal mitoses MDBK (MDBK cells): 1.12
- Mitotic activity MDBK (MDBK cells): 0.88
- viability of Raji cells (MTT reading) (Raji cells; 0.9 μg/ml): 1.287
- viability of Raji cells (MTT reading) (Raji cells; 9 μg/ml): 1.235
- viability of Raji cells (MTT reading) (Raji cells; 18 μg/ml): 0.1791
- viability of Raji cells (MTT reading) (Raji cells; 90 μg/ml): 0.152
- CC50 (Raji cells; Raji cells, MTT): 33.46 µg/mL (≈ 91.3 µM)

Compound: N[C@@H](CCC(=O)O)C(=O)O [10a, glutamic acid]
- CC50 as dilution (MDCK cells): 1:160
- Abnormal mitoses in % (MDBK cells; MDBK, 24 h): 22.2%
- Abnormal mitoses MDBK (MDBK cells): 1.0
- Mitotic activity MDBK (MDBK cells): 0.77

Compound: Nc1nc2c(ncn2COCCO)c(=O)[nH]1 [Aciclovir, Acyclovir, reference compound]
- MP (%) (herpes simplex virus; reference, dose not given): 25%
- Number of survived mice (herpes simplex virus; reference, dose not given): 2

Compound: O=C(O)CC(O)(CC(=O)O)C(=O)O [No 8a, citric acid]
- CC50 as dilution (MDCK cells): 1/160
- CC50 at 5 days (in vitro): 14 µg/mL (≈ 72.9 µM)

Compound: CCOC(=O)C1=C[C@@H](OC(CC)CC)[C@H](NC(C)=O)[C@@H](N)C1 [Tamiflu]
- EI (efficacy index) [1]: 70
- Inhibition of infectious titer in cerebral tissue in lg TCD50 [1]: 2.5 lg TCD50
- Number of mice that died, % ([1]; 10 mice): 30.0%
- Number of mice that died, total ([1]; 10 mice): 3

Compound: Deuterium-depleted water
- EI (efficacy index) (herpes virus): 50.0
- Inhibition of infectious titer in cerebral tissue in lg TCD50 (herpes virus): 2.0 lg TCD50
- MP (multiplicity of protection) (herpes virus): 2.0
- Number of mice that died, % (herpes virus; 10 mice): 50.0%
- Number of mice that died, total (herpes virus; 10 mice): 5
- MP (%) (herpes simplex virus; 50 μl/mouse): 38%
- Number of survived mice (herpes simplex virus; 50 μl/mouse, 4 injections): 3
- MP (%) (herpes simplex virus; 100 μl/mouse): 50%
- Number of survived mice (herpes simplex virus; 100 μl/mouse, 4 injections): 4
- MP (%) (herpes simplex virus; 200 μl/mouse): 75%
- Number of survived mice (herpes simplex virus; 200 μl/mouse, 4 injections): 6
